Read-outs that look alike come from different tables or passages of the source.
Assays:
human DLK [1] = biological target: T1, human DLK (Homo sapiens (Human), UniProt Q12852); experiment: cell-based; conditions: p-cJun (Ser63)
Description: HEK293 cells stably transfected with a Dox-inducible human DLK were plated into a 384-well plate in 20 μl (40,000 cells/well) of DMEM medium (without phenol red) containing 10% fetal bovine serum, 1.5 μg/ml doxycycline and 1 μg/ml puromycin. The cells as negative control were grown in the absence of doxycycline. The plate was incubated at 37° C., 5% CO2 for 20 h, before DMSO (control) or compounds diluted in medium were added. The cells were incubated at 37° C. for an additional 5 h, followed by lysis and the addition detection antibodies from p-cJun (Ser63) cellular assay kit (Cisbio) per manufacturer protocol. The standard dose response curves were fitted by Genedata Screener software using the variable-slope model: Signal=Signalnegative control+(SignalDMSO control−Signalnegative control)/(1+(IC50/Dose)^Hill slope). Only signal and dose in the equation were treated as known values.

human DLK [2] = biological target: T1, human DLK; experiment: biochemical; assay type: binding
Description: The DLK dissociation constants (Kd) have been determined in the KINOMEscan KdELECT Service at DiscoveRx.
A fusion protein of full length of human DLK (amino acids 1-859) and the DNA binding domain of NFkB was expressed in transiently transfected HEK293 cells. From these HEK 293 cells, extracts were prepared in M-PER extraction buffer (Pierce) in the presence of Protease Inhibitor Cocktail Complete (Roche) and Phosphatase Inhibitor Cocktail Set II (Merck) per manufacturers' instructions. The DLK fusion protein was labeled with a chimeric double-stranded DNA tag containing the NFkB binding site (5′-[sequence]-3′) fused to an amplicon for qPCR readout, which was added directly to the expression extract (the final concentration of DNA-tag in the binding reaction is 0.1 nM).
The liganded beads were blocked with excess biotin and washed with blocking buffer (SeaBlock (Pierce), 1% BSA, 0.05% Tween 20, 1 mM DTT) to remove unbound ligand and to reduce nonspecific binding.
Extracts were used directly in binding assays without any enzyme purification steps at a ≥10,000-fold overall stock dilution (final DNA-tagged enzyme concentration <0.1 nM). Extracts were loaded with DNA-tag and diluted into the binding reaction in a two step process. First extracts were diluted 1:100 in 1× binding buffer (PBS/0.05% Tween 20/10 mM DTT/0.1% BSA/2 μg/ml sonicated salmon sperm DNA) containing 10 nM DNA-tag. This dilution was allowed to equilibrate at room temperature for 15 minutes and then subsequently diluted 1:100 in 1× binding buffer. Test compounds were prepared as 111× stocks in 100% DMSO. Kds were determined using an 11-point 3-fold compound dilution series with three DMSO control points. […] The compounds were then diluted directly into the assays such that the final concentration of DMSO was 0.9%. All reactions performed in polypropylene 384-well plates. Each was a final volume of 0.02 mL. Assays were incubated with shaking for 1 hour at room temperature. Then the beads were pelleted and washed with wash buffer (1×PBS, 0.05% Tween 20) to remove displaced kinase and test compound. […] The kinase concentration in the eluates was measured by qPCR. qPCR reactions were assembled by adding 2.5 μL of kinase eluate to 7.5 μL of qPCR master mix containing 0.15 μM amplicon primers and 0.15 μM amplicon probe. The qPCR protocol consisted of a 10 minute hot start at 95° C., followed by 35 cycles of 95° C. for 15 seconds, 60° C. for 1 minute.
Test compounds were prepared as 11× stocks in 100% DMSO. Kds were determined using an 11-point 3-fold compound dilution series with three DMSO control points. […] The compounds were then diluted directly into the assays such that the final concentration of DMSO was 0.9%. The Kds were determined using a compound top concentration of 30,000 nM. Kd measurements were performed in duplicate.
Binding constants (Kds) were calculated with a standard dose-response curve using the Hill equation:
The Hill Slope was set to −1.

[3] = Table 2b (global), additional assay runs on multiple batches, includes Table 2a data in the averaging, HEK293, read-out: Cell IC50
[4] = Table 2b DLK activity (global), read-out: Kd

## Nc1ncc(-c2cn(C34CC(C3)C4)c([C@H](O)C(F)(F)F)n2)cc1C(F)(F)F (single isomer, unassigned) [Example 6a]
Human DLK [1]; [3]
  IC50: 745 nM

## Nc1ncc(-c2cn(C34CC(C3)C4)c([C@@H](O)C(F)(F)F)n2)cc1C(F)(F)F (single isomer, unassigned) [Example 6b]
Human DLK [1]; [3]
  IC50: 38.7 nM
Human DLK [2]; [4]
  Kd: 0.74 nM

## Nc1ncc(-c2cn(C34CC(N5CCOCC5)(C3)C4)c([C@H](O)C(F)(F)F)n2)cc1OC(F)(F)F (single isomer, unassigned) [Example 8a]
Human DLK [1]; [3]
  IC50: 24.8 nM
Human DLK [2]; [4]
  Kd: 0.36 nM

## Nc1ncc(-c2cn(C34CC(N5CCOCC5)(C3)C4)c([C@@H](O)C(F)(F)F)n2)cc1OC(F)(F)F (single isomer, unassigned) [Example 8b]
Human DLK [1]; [3]
  IC50: 284 nM

## C#CCN1CCN(C23CC(n4cc(-c5cnc(N)c(OC(F)(F)F)c5)nc4[C@@H](O)C(C)C)(C2)C3)CC1 (single isomer, unassigned) [Example 9a]
Human DLK [1]; [3]
  IC50: 20.2 nM

## C#CCN1CCN(C23CC(n4cc(-c5cnc(N)c(OC(F)(F)F)c5)nc4[C@H](O)C(C)C)(C2)C3)CC1 (single isomer, unassigned) [Example 9b]
Human DLK [1]; [3]
  IC50: 684 nM

## Nc1ncc(-c2cn(C34CC(N5CCOCC5)(C3)C4)c(C(O)C(F)(F)F)n2)cc1C(F)(F)F (single isomer, unassigned) [Example 69a, 1-(4-(6-amino-5-(trifluoromethyl)pyridin-3-yl)-1-(3-morpholinobicyclo[1.1.1]pentan-1-yl)-1H-imidazol-2-yl)-2,2,2-trifluoroethan-1-ol]
Human DLK [1]; [3]
  IC50: 36.7 nM
Human DLK [2]; [4]
  Kd: 0.36 nM

## Nc1ncc(-c2cn(C34CC(N5CCOCC5)(C3)C4)c(C(O)C(F)(F)F)n2)cc1C(F)(F)F (single isomer, unassigned) [Example 69b, 1-(4-(6-amino-5-(trifluoromethyl)pyridin-3-yl)-1-(3-morpholinobicyclo[1.1.1]pentan-1-yl)-1H-imidazol-2-yl)-2,2,2-trifluoroethan-1-ol]
Human DLK [1]; [3]
  IC50: 722 nM

## Nc1ncc(-c2cn(C34CC(N5CCOCC5)(C3)C4)c(C3CC3)n2)cc1C(F)(F)F [Example 4]
Human DLK [1]; Table 2a, HEK293 cells, Dox-inducible human DLK, 5 h compound, read-out: Avg Phospho-cJun Cell IC50
  IC50: 366 nM
Human DLK [1]; [3]
  IC50: 400 nM
Human DLK [2]; [4]
  Kd: 8.3 nM
Human DLK [2]; read-out: Avg DLK Kd
  Kd: 13 nM

## CCCN1CCN(C23CC(n4cc(-c5cnc(N)c(OC(F)(F)F)c5)nc4[C@@H](O)C(C)C)(C2)C3)CC1 [Example 10, (S)-1-(4-(6-amino-5-(trifluoromethoxy)pyridin-3-yl)-1-(3-(4-(propyl)piperazin-1-yl)bicyclo[1.1.1]pentan-1-yl)-1H-imidazol-2-yl)-2-methylpropan-1-ol]
Human DLK [1]; [3]
  IC50: 13.9 nM
Human DLK [2]; [4]
  Kd: 0.31 nM

## Nc1ncc(-c2cn(C34CC(N5CCS(=O)(=O)CC5)(C3)C4)c(C3CC3)n2)cc1OC(F)(F)F [Example 13, 4-(3-(4-(6-amino-5-(trifluoromethoxy)pyridin-3-yl)-2-cyclopropyl-1H-imidazol-1-yl)bicyclo[1.1.1]pentan-1-yl)thiomorpholine 1,1-dioxide]
Human DLK [1]; [3]
  IC50: 317 nM
Human DLK [2]; [4]
  Kd: 32 nM

## Nc1ncc(-c2cn(C34CC(N5CCN(CC(F)(F)F)CC5)(C3)C4)c(C3CC3)n2)cc1OC(F)(F)F [Example 15, 5-(2-cyclopropyl-1-(3-(4-(2,2,2-trifluoroethyl)piperazin-1-yl)bicyclo[1.1.1]pentan-1-yl)-1H-imidazol-4-yl)-3-(trifluoromethoxy)pyridin-2-amine]
Human DLK [1]; [3]
  IC50: 540 nM
Human DLK [2]; [4]
  Kd: 18 nM

## CS(=O)(=O)N1CCN(C23CC(n4cc(-c5cnc(N)c(OC(F)(F)F)c5)nc4C4CC4)(C2)C3)CC1 [Example 16, 5-(2-cyclopropyl-1-(3-(4-(methylsulfonyl)piperazin-1-yl)bicyclo[1.1.1]pentan-1-yl)-1H-imidazol-4-yl)-3-(trifluoromethoxy)pyridin-2-amine]
Human DLK [1]; [3]
  IC50: 457 nM
Human DLK [2]; [4]
  Kd: 24 nM

## Nc1ncc(-c2cn(C34CC(N5CCN(CCF)CC5)(C3)C4)c(C3CC3)n2)cc1OC(F)(F)F [Example 17, 5-(2-cyclopropyl-1-(3-(4-(2-fluoroethyl)piperazin-1-yl)bicyclo[1.1.1]pentan-1-yl)-1H-imidazol-4-yl)-3-(trifluoromethoxy)pyridin-2-amine]
Human DLK [1]; [3]
  IC50: 281 nM
Human DLK [2]; [4]
  Kd: 6.9 nM

## FC(F)(F)c1c[nH]c2ncc(-c3cn(C45CC(N6CCOCC6)(C4)C5)c(C4CC4)n3)cc12 [Example 18, 4-(3-(2-cyclopropyl-4-(3-(trifluoromethyl)-1H-pyrrolo[2,3-b]pyridin-5-yl)-1H-imidazol-1-yl)bicyclo[1.1.1]pentan-1-yl)morpholine]
Human DLK [1]; [3]
  IC50: 155 nM
Human DLK [2]; [4]
  Kd: 1.9 nM

## Nc1ncc(-c2cn(C34CC(N5CCCCC5)(C3)C4)c(C3CC3)n2)cc1OC(F)(F)F [Example 19, 5-(2-cyclopropyl-1-(3-(piperidin-1-yl)bicyclo[1.1.1]pentan-1-yl)-1H-imidazol-4-yl)-3-(trifluoromethoxy)pyridin-2-amine]
Human DLK [1]; [3]
  IC50: 600 nM
Human DLK [2]; [4]
  Kd: 14 nM

## c1cc2ncc(-c3cn(C45CC(N6CCOCC6)(C4)C5)c(C4CC4)n3)cc2[nH]1 [Example 20, 4-(3-(2-cyclopropyl-4-(1H-pyrrolo[3,2-b]pyridin-6-yl)-1H-imidazol-1-yl)bicyclo[1.1.1]pentan-1-yl)morpholine]
Human DLK [1]; [3]
  IC50: 12000 nM
Human DLK [2]; [4]
  Kd: 7500 nM

## FCCn1ccc2ncc(-c3cn(C45CC(N6CCOCC6)(C4)C5)c(C4CC4)n3)cc21 [Example 21, 4-(3-(2-cyclopropyl-4-(1-(2-fluoroethyl)-H-pyrrolo[3,2-b]pyridin-6-yl)-H-imidazol-1-yl)bicyclo[1.1.1]pentan-1-yl)morpholine, bis(2,2,2-trifluoroacetate)]
Human DLK [1]; [3]
  IC50: 5870 nM
Human DLK [2]; [4]
  Kd: 330 nM

## CN1CCN(C23CC(n4cc(-c5cnc(N)c(OC(F)(F)F)c5)nc4C4CC4)(C2)C3)CC1=O [Example 22, 4-(3-(4-(6-amino-5-(trifluoromethoxy)pyridin-3-yl)-2-cyclopropyl-1H-imidazol-1-yl)bicyclo[1.1.1]pentan-1-yl)-1-methylpiperazin-2-one]
Human DLK [1]; [3]
  IC50: 404 nM
Human DLK [2]; [4]
  Kd: 9.7 nM

## CN1CCN(C23CC(n4cc(-c5cnc(N)c(OC(F)(F)F)c5)nc4C4CC4)(C2)C3)C(=O)C1 [Example 23, 1-(3-(4-(6-amino-5-(trifluoromethoxy)pyridin-3-yl)-2-cyclopropyl-1H-imidazol-1-yl)bicyclo[1.1.1]pentan-1-yl)-4-methylpiperazin-2-one]
Human DLK [1]; [3]
  IC50: 471 nM
Human DLK [2]; [4]
  Kd: 17 nM

## COCCN(C)C12CC(n3cc(-c4cnc(N)c(OC(F)(F)F)c4)nc3C3CC3)(C1)C2 [Example 24, 5-(2-cyclopropyl-1-(3-((2-methoxyethyl)(methyl)amino)bicyo[1.1.1]pentan-1-yl)-1H-imidazol-4-yl)-3-(trifluoromethoxy)pyridin-2-amine]
Human DLK [1]; [3]
  IC50: 553 nM
Human DLK [2]; [4]
  Kd: 6.8 nM

## COCCN(CCOC)C12CC(n3cc(-c4cnc(N)c(OC(F)(F)F)c4)nc3C3CC3)(C1)C2 [Example 25, 5-(1-(3-(bis(2-methoxyethyl)amino)bicyclo[1.1.1]pentan-1-yl)-2-cyclopropyl-1H-imidazol-4-yl)-3-(trifluoromethoxy)pyridin-2-amine]
Human DLK [1]; [3]
  IC50: 389 nM
Human DLK [2]; [4]
  Kd: 6.4 nM

## Nc1ncc(-c2cn(C34CC(N5CCC(O)CC5)(C3)C4)c(C3CC3)n2)cc1OC(F)(F)F [Example 26, 1-(3-(4-(6-amino-5-(trifluoromethoxy)pyridin-3-yl)-2-cyclopropyl-1H-imidazol-1-yl)bicyclo[1.1.1]pentan-1-yl)piperidin-4-ol]
Human DLK [1]; [3]
  IC50: 383 nM
Human DLK [2]; [4]
  Kd: 7 nM

## CC(C)c1nc(-c2cnc3ccn(C(C)c4ccccn4)c3c2)cn1C12CC(N3CCOCC3)(C1)C2 (stereo not shown) [Example 28, 4-(3-(2-isopropyl-4-(1-(1-(pyridin-2-yl)ethyl)-1H-pyrrolo[3,2-b]pyridin-6-yl)-1H-imidazol-1-yl)bicyclo[1.1.1]pentan-1-yl)morpholine]
Human DLK [1]; [3]
  IC50: 148 nM
Human DLK [2]; [4]
  Kd: 2.9 nM

## N#CC1(c2nc(-c3cnc(N)c(OC(F)(F)F)c3)cn2C23CC(N4CCOCC4)(C2)C3)CC1 [Example 29, 1-(4-(6-amino-5-(trifluoromethoxy)pyridin-3-yl)-1-(3-morpholinobicyclo[1.1.1]pentan-1-yl)-1H-imidazol-2-yl)cyclopropane-1-carbonitrile]
Human DLK [1]; [3]
  IC50: 531 nM
Human DLK [2]; [4]
  Kd: 20 nM

## Nc1ncc(-c2cn(C34CC(N5CCOCC5)(C3)C4)c(C3CCOC3)n2)cc1OC(F)(F)F (stereo not shown) [Example 30, 5-(1-(3-morpholinobicyclo[1.1.1]pentan-1-yl)-2-(tetrahydrofuran-3-yl)-1H-imidazol-4-yl)-3-(trifluoromethoxy)pyridin-2-amine]
Human DLK [1]; [3]
  IC50: 5110 nM
Human DLK [2]; [4]
  Kd: 390 nM

## Nc1ncc(-c2cn(C34CC(N5CCOCC5)(C3)C4)c(C3COC3)n2)cc1OC(F)(F)F [Example 31, 5-(1-(3-morpholinobicyclo[1.1.1]pentan-1-yl)-2-(oxetan-3-yl)-1H-imidazol-4-yl)-3-(trifluoromethoxy)pyridin-2-amine]
Human DLK [1]; [3]
  IC50: 2570 nM
Human DLK [2]; [4]
  Kd: 170 nM

## Nc1ncc(-c2cn(C34CC(N5CCOCC5)(C3)C4)c(C3CCCO3)n2)cc1OC(F)(F)F (stereo not shown) [Example 32, 5-(1-(3-morpholinobicyclo[1.1.1]pentan-1-yl)-2-(tetrahydrofuran-2-yl)-1H-imidazol-4-yl)-3-(trifluoromethoxy)pyridin-2-amine]
Human DLK [1]; [3]
  IC50: 518 nM
Human DLK [2]; [4]
  Kd: 6.7 nM

## Nc1ncc(-c2cn(C34CC(C3)C4)c(C(O)C(F)(F)F)n2)cc1OC(F)(F)F (stereo not shown) [Example 63b, 1-(4-(6-amino-5-(trifluoromethoxy)pyridin-3-yl)-1-(bicyclo[1.1.1]pentan-1-yl)-1H-imidazol-2-yl)-2,2,2-trifluoroethan-1-ol]
Human DLK [2]; [4]
  Kd: 1.6 nM

## CCCN1CCN(C23CC(n4cc(-c5cnc(N)c(OC(F)(F)F)c5)nc4C(O)C(C)C)(C2)C3)CC1 (stereo not shown) [Example 70, 1-(4-(6-amino-5-(trifluoromethoxy)pyridin-3-yl)-1-(3-(4-propylpiperazin-1-yl)bicyclo[1.1.1]pentan-1-yl)-1H-imidazol-2-yl)-2-methylpropan-1-ol]
Human DLK [1]; [3]
  IC50: 923 nM

Reference: patent US10093664B2, “Bicyclo[1.1.1]pentane inhibitors of dual leucine zipper (DLK) kinase for the treatment of disease” (priority 2016, dated 2018)
